“And” between values parts separate entries of the source, which are not always exact repeats. Equal entries are not always repeated. Where a SMILES comes first, the peptide text is derived from it.
Key:
BTLA/HVEM complex = biological target: T1, BTLA/HVEM complex (Homo sapiens, UniProt Q92956); assay: ELISA inhibition of BTLA/HVEM complex formation; format: biochemical; conditions: peptide 16.67 μM, immobilized HVEM-His, BTLA-Fc 5 μg/mL, PBS-T, 37 °C, mean of three independent experiments
T1 construct: purchased ACROBiosystems HVM-H52E9 (HVEM-His); BTA-H5255 (BTLA-Fc)
T1 sequence (Q92956 39-202 limits assumed): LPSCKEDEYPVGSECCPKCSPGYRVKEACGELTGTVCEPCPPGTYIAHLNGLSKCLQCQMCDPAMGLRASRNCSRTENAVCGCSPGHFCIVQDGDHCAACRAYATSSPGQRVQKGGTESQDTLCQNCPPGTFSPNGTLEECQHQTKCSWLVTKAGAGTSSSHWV
Experimental: In the subsequent stage of the study, the potential of the obtained compounds to inhibit the interaction between BTLA and HVEM proteins was evaluated using ELISA, following the methodology described in our previous studies. , HVEM was immobilized on the plate and incubated with peptides at three different concentrations, followed by the addition of Fc-tagged BTLA. Detection was carried out using horseradish peroxidase (HRP) conjugated with anti-human IgG and 3,3′,5,5′-tetramethylbenzidine (TMB) as a substrate. Signal intensity was directly proportional to the amount of BTLA bound to HVEM and inversely proportional to the inhibitory activity of the tested peptides. As a control, BTLA and HVEM were incubated in the absence of peptides.
Recombinant human HVEM protein with a His tag was purchased from ACROBiosystems, Newark, DE, USA (no. HVM-H52E9). Recombinant human protein BTLA-Fc and LIGHT-Fc were also purchased from ACROBiosystems, Newark, DE, USA (no. BTA-H5255 and no. LIT-H5269).
ELISA was performed using transparent 96-well NUNC Maxisorp plates (Thermo Fisher Scientific, Waltham, MA, USA). In the first step, HVEM-His, dissolved in PBS at a concentration of 5 μg/mL (100 μL/well), was immobilized on the plate by overnight incubation at 4 °C. Wells were then blocked with 5% bovine serum albumin (BSA) in PBS containing 0.05% Tween 20 (PBS-T) (200 μL/well). Next, peptides dissolved in PBS-T at concentrations of 150, 50, and 16.67 μM were added to the wells (100 μL/well). Following this, BTLA-Fc in PBS-T at a concentration of 5 μg/mL (100 μL/well) was applied. In the next step, goat anti-human IgG antibody conjugated with the HRP (Bio-Rad Laboratories, Hercules, CA, USA) in PBS-T at a ratio of 1:30,000 (v/v) was added (100 μL/well). Colorimetric detection was performed by adding 100 μL of TMB substrate (Thermo Fisher Scientific, Waltham, MA, USA) to each well and incubating the plate in the dark. At each stage, plates were incubated at 37 °C with continuous shaking for 1 h (except TMB, which was incubated for 15 min). After each incubation, wells were washed five times with PBS-T. Absorbance was measured using an Infinite M200 Pro Reader (Tecan Group Ltd., Männedorf, Switzerland) at wavelengths of 650 nm (measurement wavelength) and 492 nm (reference wavelength). Inhibition assays for the HVEM/LIGHT complex were conducted using the same approach, except that LIGHT was used instead of BTLA. The BTLA/HVEM and HVEM/LIGHT complexes without peptides served as controls. Inhibition percentages were calculated based on the assumption that PBS-T has no effect on the formation of BTLA/HVEM or HVEM/LIGHT complexes. Each ELISA was conducted in at least three independent replicates. The data were analyzed using GraphPad Prism 8 software (San Diego, CA, USA).

BTLA/HVEM interaction = assay: Cellular reporter assay, HVEM reporter cells (JE6.1-NF-κB::eGFP) stimulated with TCS-BTLA; format: cell-based, human; conditions: 30 min preincubation, 24 h coculture, NF-κB::eGFP by flow cytometry, mean of four independent experiments in duplicate
Experimental: In the next step of the study, the inhibitory properties of the designed peptides were evaluated using previously described cell-based assays. The experiment utilized reporter cells expressing HVEM (JE6.1-NF-κB::eGFP) and T cell stimulator cells expressing BTLA (TCS-BTLA). Activation of the reporter cells by TCS followed a two-signal model. The first is generated through the interaction between the T cell receptor–cluster of differentiation 3 (TCR–CD3) complex on the surface of the reporter cells and a membrane-bound antihuman CD3 single-chain antibody fragment (mAb aCD3) expressed on the TCS cells. The second signal is provided by the binding of HVEM and BTLA, which in this assay results in a strong costimulatory signal via HVEM. Activation of the reporter cells leads to the expression of nuclear factor kappa light chain enhancer of activated B cells (NF-κB), which correlates with the level of enhanced green fluorescent protein (eGFP), measured by flow cytometry. In the absence of peptides, NF-κB expression is normalized to 100%. Disruption of the BTLA/HVEM interaction by peptides results in a concentration-dependent decrease in NF-κB levels. In this study, HVEM-expressing reporter cells were stimulated with BTLA-expressing TCS cells in the presence or absence of tested peptides at three different concentrations.
(§1) Cellular studies were performed in the same procedure as we described previously for gD- and BTLA-derived peptides. , The peptides were dissolved in the medium, and their final concentrations in wells were 150, 50, and 16,7 μM. Briefly, reporter cells expressing HVEM (JE6.1-NF-κB::eGFP) (5 × 10^4 cells/well) were preincubated with peptides for 30 min in a 96-well flat-bottom plate. Subsequently, the second cell line expressing BTLA (TCS BTLA) or LIGHT (TCS LIGHT) (2 × 10^4 cells/well) was added and cocultured for 24 h at 37 °C in an atmosphere of 5% CO2. Next, an APC-conjugated mCD45.2 antibody to exclude TCS from the reporter cells was added. The expression of the reporter gene (eGFP) was measured via flow cytometry using a CytoFLEX flow cytometer (Beckman Coulter Inc., Brea, CA, USA), and the results were analyzed using FlowJo v10.10 (FlowJo LLC, Ashland, OR, USA). The data were analyzed using GraphPad Prism 8 software (San Diego, CA, USA).

HVEM/LIGHT interaction = assay: Cellular reporter assay, HVEM reporter cells (JE6.1-NF-κB::eGFP) stimulated with TCS LIGHT; format: cell-based, human; conditions: 24 h coculture, three experiments
Experimental: These findings prompted us to investigate whether the peptide is also capable of inhibiting the binding of HVEM to its ligand–the LIGHT protein. Accordingly, ELISA and cell-based assays were conducted under the same conditions as those used for the BTLA/HVEM complex, with the exception that LIGHT was used instead of BTLA.
as §1

CC[C@@H]1NC(=O)[C@@H](NC(=O)[C@H](CCC(N)=O)NC(=O)[C@H](Cc2ccc(O)cc2)NC(C)=O)CSSC[C@@H](C(=O)N[C@@H](Cc2c[nH]cn2)C(=O)N[C@@H](Cc2ccccc2)C(=O)N[C@@H](Cc2ccccc2)C(N)=O)NC(=O)[C@H](CCC(N)=O)NC(=O)[C@H](CC(C)C)NC(=O)[C@H](CCCNC(=N)N)NC(=O)[C@H]([C@@H](C)CC)NC(=O)CNC(=O)[C@H](CO)NC(=O)[C@H](CCCCN)NC(=O)[C@H](CCC(N)=O)NC(=O)[C@H](CO)NC(=O)[C@H](CCCNC(=N)N)NC(=O)[C@H](C)NC1=O [A5, CD160(110–128) ^(C113X,G125C)] (HELM PEPTIDE1{[ac].Y.Q.C.[Abu].A.R.S.Q.K.S.G.I.R.L.Q.C.H.F.F.[am]}$PEPTIDE1,PEPTIDE1,4:R3-17:R3$$$V2.0)
inhibition at 16.67 µM (BTLA/HVEM complex): 6.24% | Inhibition - Cellular assay 16.67 µM (BTLA/HVEM interaction; peptide 16.67 μM): ~14% and 14.03% | Inhibition - Cellular assay 50 µM (BTLA/HVEM interaction; peptide 50 μM): 59.04% | Inhibition - Cellular assay 150 µM (BTLA/HVEM interaction; peptide 150 μM): 80.42% | Inhibition of NF-κB activation, HVEM/LIGHT cell-based assay, 16.67 μM (HVEM/LIGHT interaction; peptide 16.67 μM): 13% | Inhibition of NF-κB activation, HVEM/LIGHT cell-based assay, 50 μM (HVEM/LIGHT interaction; peptide 50 μM): 34% | Inhibition of NF-κB activation, HVEM/LIGHT cell-based assay, 150 μM (HVEM/LIGHT interaction; peptide 150 μM): 72%

Reference: article PMC12714101, “CD160-Derived Peptide as a Bidirectional Inhibitor Toward Immune Checkpoints BTLA/HVEM and HVEM/LIGHT” (Journal of Medicinal Chemistry, 2025)
